Measurements: patent publication US9249085B2, “Aniline derivatives, their preparation and their therapeutic application” (FOVEA PHARMACEUTICALS, priority 2011, dated 2016)
Converted amounts (≈) assume the structure as drawn.

Experiments:
[1] = Solubility at equilibrium; assay type: physicochemical; details: thermodynamic from solid; in the diluent, room temperature, n=1, HPLC quantification
Procedure: Solubility of the test materials was evaluated on n=1 trial, following the procedure below:
2.5 mg of each compound for solubility testing were dissolved in 5 mL of the diluent, an initial concentration of 500 ug/mL. The mixture was first vortexed for 15 seconds to allow a good wetting of the API, then sonicated for 5 minutes to promote solubilisation. The vortex/sonication cycle was repeated 3 times. The suspension was stirred at room temperature using a magnetic stirrer at 300 rpm. This mixture is observed at 4 h, 24 h and 48 h to determine if the test compound has dissolved. At each time point if the compound is completely solubilised a further 5 mg of the test compound is added and the process repeated.
When no more test compound will dissolve in the diluent, an aliquot of 0.5 mL of the suspension was withdrawn and centrifuged 3×2 min at 13400 rpm. The supernatant for HPLC quantification was filtered using 0.2 μm Pall Aerodisc Nylon 13 mm membrane and quantified by comparing to the calibration curve, using the method: column: Nucleodur C18 ISIS 3 μm 4.6×125 mm, Mobile Phase (CH3COOH 0.05% in H2O and ACN), Flow rate: 1 ml/min, Wavelength: λ=240 nm (IIa and IIc) or […] (IId), Injected volume: 10 μl, Gradient of concentration: from 30% B to 100% B in 6 min.

[2] = biological target: recombinant human prostanoid EP2 receptor (Homo sapiens (Human), UniProt P43116); experiment: Human prostanoid EP2 receptor cellular functional assay (cAMP, HTRF); assay type: cell-based
Procedure: Test 1.2: Human Prostanoid EP2 Receptor Cellular Functional Assay
Human CHO cells expressing the recombinant human prostanoid EP2 receptor were suspended in assay medium (HBSS buffer (Invitrogen) containing 20 mM HEPES (pH7.4) and 500 μM isobutyl-methylxanthine IBMX) and plated out to yield approximately 1×10^4 cells/well in a 96-well. Following this, cells were incubated with agonists for 30 min in the presence of the test compounds. For stimulated control measurements, separate assay wells contain 10 μM PGE2 (control specific agonist). All incubations were carried out at 37° C. in a 5% CO2 atmosphere. Following incubation, the amount of cAMP in each well was determined by HTRF method. The cells are lysed and the fluorescence acceptor (D2-labeled cAMP) and fluorescence donor (anti-cAMP antibody labeled with europium cryptate) are added. After 60 min at room temperature, the fluorescence transfer is measured at λ ex=337 nm and λ em=620 and 665 nm using a microplate reader (Rubystar, BMG).
The cAMP concentration is determined by dividing the signal measured at 665 nm by that measured at 620 nm (ratio).
The standard reference agonist PGE2 was tested at several concentrations to generate a concentration-response curve to determined EC50.
Analysis and Expression of Results
The results are expressed as a percent of control specific agonist response ((measured specific response/control specific agonist response)×100) obtained in the presence of the test compounds. The EC50 values (concentration producing a half-maximal specific response) were determined by non-linear regression analysis of the concentration-response curves generated with mean replicate values using Hill equation curve fitting (Y=D+[(A−D)/(1+(C/C50)nH)], where Y=specific response, D=minimum specific response, A=maximum specific response, C=compound concentration, and C50=EC50 and nH=slope factor). This analysis was performed using a software developed at Cerep (Hill software) and validated by comparison with data generated by the commercial software SigmaPlot® 4.0 for Windows® (© 1997 by SPSS Inc.).

[3] = system: Laser-Induced Hypertensive Cynomolgus Monkey; experiment: Intraocular pressure in laser-induced hypertensive cynomolgus monkey; assay type: in vivo; details: 0.01% topical, 50 μl drop to glaucomatous eye once daily for 5 days; FIG. 1
Procedure: Laser-Induced Hypertensive Cynomolgus Monkey
Ten adult female cynomolgus monkeys, each weighing 3-5 kg, in which glaucoma had been induced unilaterally by diode laser photocoagulation of the mid-trabecular meshwork, were used in this study.
Intraocular pressure (IOP) was measured at 0 hr (before drug administration) and then hourly until 6 hrs after drug administration on one baseline day, one vehicle-treatment day, and treatment days 1, 3, and 5 with 0.01% of compound II(d).
Compound II(d) was tested in two groups of 4 monkeys for a total of 8 monkeys. Following one baseline day (untreated) and one vehicle-treatment day (50 μl (25 μl×2), drop of vehicle to the glaucomatous eye at 9:30 (a 50 μl drop (25 μl×2) of compound (II(d)) were topically applied to the glaucomatous eye only once daily at 9:30 am for 5 consecutive days.
Slit-lamp examination for the detection of aqueous humor flare and cells was performed in a dark room before drug administration and at 1, 3 and 5 hrs after dosing on baseline day and at the same times on treatment days 1, 3 and 5.
Two-tailed paired and unpaired t test and the ANOVA test were used for statistical analysis.

Sequence of recombinant human prostanoid EP2 receptor (P43116 whole entry): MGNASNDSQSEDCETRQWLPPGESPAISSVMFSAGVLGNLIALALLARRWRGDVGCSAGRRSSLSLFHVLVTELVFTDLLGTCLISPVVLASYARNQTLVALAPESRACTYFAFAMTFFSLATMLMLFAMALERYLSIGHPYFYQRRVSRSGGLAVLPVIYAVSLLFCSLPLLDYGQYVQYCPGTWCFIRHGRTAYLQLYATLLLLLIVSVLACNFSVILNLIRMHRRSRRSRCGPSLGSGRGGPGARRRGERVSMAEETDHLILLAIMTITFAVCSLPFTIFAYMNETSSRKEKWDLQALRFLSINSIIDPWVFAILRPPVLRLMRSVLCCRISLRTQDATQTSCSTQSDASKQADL

solubility [1] [µg/mL] | EC50 ([2]; CHO cells expressing recombinant human EP2, cAMP by HTRF, 30 min, 37° C., read-out: In vitro functional assay EP2 (h) EC50) [nM] | In vitro functional assay EP2 (h) % response ([2]; percent of control specific agonist response (10 μM PGE2)) [%] | Structure (SMILES) | overall IOP reduction [3] [%]
6780 (≈ 16.2 mM) |  |  | COC(=O)COc1ccc(F)c(NCc2cc(-c3cccc(F)c3)ccc2F)c1F [II(c), Methyl 2-[2,4-difluoro-3-[[2-fluoro-5-(3-fluorophenyl)phenyl]methylamino]phenoxy]acetate] | 
8120 (≈ 18.7 mM) |  |  | CCOC(=O)COc1ccc(F)c(NCc2cc(-c3cccc(F)c3)ccc2F)c1F [II(a), ethyl 2-[2,4-difluoro-3-[[2-fluoro-5-(3-fluorophenyl)phenyl]methylamino]phenoxy]acetate] | 
542 (≈ 1.13 mM) |  |  | O=C(O)COc1cccc(CN(Cc2ccc(-n3cccn3)cc2)S(=O)(=O)c2cccnc2)c1 [PF-04217329, taprenepag, reference compound] | 
711 (≈ 1.59 mM) | > 300 | 44 | CC(C)OC(=O)COc1ccc(F)c(NCc2cc(-c3cccc(F)c3)ccc2F)c1F [II(d), Isopropyl 2-[2,4-difluoro-3-[[2-fluoro-5-(3-fluorophenyl)phenyl]methylamino]phenoxy]acetate] | 22
